Our source for the TGI and GI50 values is PubChem BioAssay (NCI).

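Grown in 96-well plates, cells were treated for 48 hours with each compound at five concentrations. Insufficient inhibition: endpoint recorded as highest concentration tested. GI50 is the concentration that inhibits growth by half. At the TGI there is no net growth.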

Some test systems named below: SNB-75 CNS; 786-0 renal; SN12C renal; SNB-19 CNS; HT29 colon; HCT-116 colon; A549 NSCLC; HOP-92 NSCLC; IGROV1 ovarian; MCF7 breast; HCC-2998 colon.
What all share (assay): growth of human tumour cells (NCI), 48 h

Regarding `COC1(CC[C@H](C)COC2OC(CO)C(O)C(O)C2O)O[C@H]2C[C@H]3[C@@H]4CC=C5C[C@@H](OC6OC(CO)C(OC7OC(C)C(O)C(O)C7O)C(O)C6OC6OC(C)C(O)C(O)C6O)CC[C@]5(C)[C@H]4CC[C@]3(C)[C@H]2[C@@H]1C` (stereo partly specified), the TGI in the assay with SNB-75 CNS was 3.8 µM; in the assay on 786-0 renal it was 5.57 µM; with SN12C renal, over 100 µM; in the assay with SNB-19 CNS it was 12.4 µM; with HT29 colon, 6.8 µM; in the assay on HCT-116 colon, 8.34 µM. Also, the TGI was 4.28 µM with A549 NSCLC; 6.2 µM in the assay with HOP-92 NSCLC; 20.1 µM with IGROV1 ovarian; 39.8 µM with MCF7 breast; over 27.9 µM with HCC-2998 colon. For the same compound, the GI50 in the assay on HCT-116 colon was 2.92 µM.
As for `CCOC(=O)[C@@H](Cc1ccc(CCl)cc1)NC(C)=O`, the TGI in the assay with SNB-75 CNS is 59 µM; in the assay on 786-0 renal, 40.4 µM; in the assay with SN12C renal it was 49.6 µM; in the assay on SNB-19 CNS, 79.2 µM; in the assay with HT29 colon, over 100 µM; in the assay with HCT-116 colon it was over 100 µM. In addition, the TGI in the assay with A549 NSCLC was over 100 µM; with HOP-92 NSCLC, 43.6 µM; in the assay on IGROV1 ovarian, 51.2 µM; in the assay on MCF7 breast, 83.5 µM; in the assay with HCC-2998 colon it was 40.4 µM.
In the case of `CCN(CC)C(=S)N/N=C(/c1ccccc1)c1ccccn1`, the TGI with SNB-75 CNS is 7.59 µM; in the assay with 786-0 renal it was 1.19 µM; in the assay with SN12C renal it was 1.35 µM; in the assay on SNB-19 CNS, over 100 µM; in the assay on HT29 colon, over 40.1 µM; in the assay on HCT-116 colon, 13.6 µM. The TGI in the assay on A549 NSCLC is over 39.7 µM; with HOP-92 NSCLC, over 100 µM; in the assay with IGROV1 ovarian, 6.72 µM; in the assay on MCF7 breast, over 54 µM; with HCC-2998 colon it was 37 µM.
For `O=c1c2c3c(sc2nc2n1N=C(c1ccc(Br)cc1)CS2)CCCC3`, the TGI with SNB-75 CNS, in the assay with 786-0 renal, in the assay on SN12C renal, in the assay on SNB-19 CNS, with HT29 colon and with HCT-116 colon was over 100 µM throughout. Besides, the TGI in the assay with A549 NSCLC, in the assay on HOP-92 NSCLC, in the assay with IGROV1 ovarian, in the assay with MCF7 breast and with HCC-2998 colon was over 100 µM each time.
For `CC[C@H](NC(=O)OC(C)(C)C)C(=O)NCP(=O)(OCc1ccc([N+](=O)[O-])cc1)OCc1ccc([N+](=O)[O-])cc1`, the TGI in the assay on SNB-75 CNS is over 100 µM; with 786-0 renal, over 100 µM; in the assay on SN12C renal, over 100 µM; in the assay on SNB-19 CNS, over 100 µM; in the assay on HT29 colon, 51.8 µM; with HCT-116 colon, over 100 µM. Besides, the TGI with A549 NSCLC, in the assay with HOP-92 NSCLC, in the assay on IGROV1 ovarian, in the assay with MCF7 breast and in the assay with HCC-2998 colon was over 100 µM in each case.
